Test results as given in PubChem BioAssay AID206 (DTP/NCI, 2004).
“And” between values parts separate entries of the source, which are not always exact repeats. Identical values can stand only once. Inconclusive results are not listed.

Test system: nude mice, HT29 intrarenal xenograft, tumor weight T/C
Test: NCI In Vivo Anticancer Drug Screen. Data for tumor model HT29;CX-1 Human Adenocarcinoma (MER+) (intrarenal inoculation) in NU/NU Swiss (nude) mice
Settings: endpoint: mean tumor weight change, higher = larger tumour
Procedure: The antitumor activity of compounds was measured in mice bearing transplantable tumors. Survival or tumor size were measured and the results are expressed as the measurement made in the treated group (T) divided by the measurement made in the vehicle treated control group (C). The tumor model used in this assay is HT29;CX-1 Human Adenocarcinoma (MER+) (intrarenal inoculation) in NU/NU Swiss (nude) mice

[1] = dose: 100.0 mg/kg/injection, schedule: Q04DX004 (sc), vehicle: suspension in saline
[2] = dose: 200.0 mg/kg/injection, schedule: Q04DX004 (sc), vehicle: suspension in saline
[3] = dose: 150.0 mg/kg/injection, schedule: Q04DX004 (sc), vehicle: Klucel (hydroxypropylcellulose) (HPC)
[4] = dose: 75.0 mg/kg/injection, schedule: Q04DX004 (sc), vehicle: saline with Tween-80
[5] = dose: 150.0 mg/kg/injection, schedule: Q04DX004 (sc), vehicle: saline with Tween-80
[6] = dose: 10.0 mg/kg/injection, schedule: Q04DX004 (sc), vehicle: saline

CC(=O)OCC(OC(C)=O)C(Cl)CCl (stereo unspecified)
T/C (dose: 31.25 mg/kg/injection, schedule: Q04DX004 (ip), vehicle: saline): 114 % of control | T/C (dose: 62.5 mg/kg/injection, schedule: Q04DX004 (ip), vehicle: saline): 121 % of control | T/C (dose: 125.0 mg/kg/injection, schedule: Q04DX004 (ip), vehicle: saline): 84 % of control | T/C (dose: 250.0 mg/kg/injection, schedule: Q04DX004 (ip), vehicle: saline): 100 % of control | T/C (dose: 500.0 mg/kg/injection, schedule: Q04DX004 (ip), vehicle: saline): 115 % of control

C=C1C(=O)OCC1C(=O)O (stereo unspecified)
T/C (dose: 50.0 mg/kg/injection, schedule: Q04DX004 (sc), vehicle: suspension in saline): 87 % of control | T/C [1]: 48 % of control | T/C [2]: 48 % of control

CCCCCC(O)C1C(=O)OC(C)C(O)/C=C/C=C/C=C/C=C\C=C(\C)C(O)CC(O)CC(O)CC(O)CC(O)CC(O)CC1O (stereo unspecified)
T/C (dose: 37.5 mg/kg/injection, schedule: Q04DX004 (sc), vehicle: distilled water + alcohol): 73 % of control | T/C (dose: 75.0 mg/kg/injection, schedule: Q04DX004 (sc), vehicle: distilled water + alcohol): 110 % of control | T/C (dose: 150.0 mg/kg/injection, schedule: Q04DX004 (sc), vehicle: distilled water + alcohol): 107 % of control

COc1cccc2c1C(=O)c1c(O)c3c(c(O)c1C2=O)C[C@@](O)(/C(C)=N\NC(=O)CO)C[C@@H]3OC1CC(N)C(O)C(C)O1 (stereo partly specified)
T/C (dose: 15.63 mg/kg/injection, schedule: Q04DX004 (sc), vehicle: saline): 52 % of control | T/C (dose: 31.25 mg/kg/injection, schedule: Q04DX004 (sc), vehicle: saline): 16 % of control | T/C (dose: 62.5 mg/kg/injection, schedule: Q04DX004 (sc), vehicle: saline): 18 % of control

CC[C@](C)(O)C(=O)O[C@H]1C(=O)O[C@@H]2C[C@H]3C(C)=CC(=O)[C@@H](O)[C@]3(C)[C@H]3[C@@]4(O)OC[C@]32[C@@H]1[C@@H](C)[C@H]4O
T/C (dose: 0.25 mg/kg/injection, schedule: Q01DX010 (sc), vehicle: Klucel (hydroxypropylcellulose) (HPC)): 55 % of control | T/C (dose: 0.5 mg/kg/injection, schedule: Q01DX010 (sc), vehicle: Klucel (hydroxypropylcellulose) (HPC)): 80 % of control | T/C (dose: 1.0 mg/kg/injection, schedule: Q01DX010 (sc), vehicle: Klucel (hydroxypropylcellulose) (HPC)): 61 % of control | T/C (dose: 2.0 mg/kg/injection, schedule: Q01DX010 (sc), vehicle: Klucel (hydroxypropylcellulose) (HPC)): 73 % of control

CO[C@H](/C(C)=C/C=C/C(C)=C/c1coc(C)n1)[C@H](C)[C@H]1C[C@@H](O)[C@@]2(C)O[C@H]2/C=C/[C@@H](C)[C@@H]2C[C@@H](CC(=O)O2)C[C@H]2O[C@@H]2C(=O)O1
T/C (dose: 0.12 mg/kg/injection, schedule: Q04DX004 (sc), vehicle: Klucel (hydroxypropylcellulose) (HPC)): 87 % of control | T/C (dose: 0.25 mg/kg/injection, schedule: Q04DX004 (sc), vehicle: Klucel (hydroxypropylcellulose) (HPC)): 45 % of control | T/C (dose: 0.5 mg/kg/injection, schedule: Q04DX004 (sc), vehicle: Klucel (hydroxypropylcellulose) (HPC)): 30 % of control

CC1=CC(=Nc2ccc(N(CCCl)CCCl)cc2)C=C(C)C1=O
T/C [3]: 71 % of control | T/C (dose: 300.0 mg/kg/injection, schedule: Q04DX004 (sc), vehicle: Klucel (hydroxypropylcellulose) (HPC)): 76 % of control | T/C (dose: 600.0 mg/kg/injection, schedule: Q04DX004 (sc), vehicle: Klucel (hydroxypropylcellulose) (HPC)): 53 % of control

CNc1cccnc1/C=N/NC(N)=S
T/C [4]: 83 % of control | T/C [5]: 110 % of control | T/C (dose: 300.0 mg/kg/injection, schedule: Q04DX004 (sc), vehicle: saline with Tween-80): 33 % of control | T/C (dose: 600.0 mg/kg/injection, schedule: Q04DX004 (sc), vehicle: saline with Tween-80): 58 % of control

COc1ccc2c(c1)CCn1c(C)c(COC(=O)NC(C)C)c(COC(=O)NC(C)C)c1-2
T/C (dose: 300.0 mg/kg/injection, schedule: Q04DX004 (sc), vehicle: distilled water + Tween-80): 165 % of control | T/C (dose: 600.0 mg/kg/injection, schedule: Q04DX004 (sc), vehicle: distilled water + Tween-80): 191 % of control

O=C[C@@H](CO)O[C@H](C=O)n1cnc2c(=O)[nH]cnc21
T/C (dose: 225.0 mg/kg/injection, schedule: Q04DX004 (sc), vehicle: saline): 76 % of control | T/C (dose: 450.0 mg/kg/injection, schedule: Q04DX004 (sc), vehicle: saline): 86 % of control | T/C (dose: 900.0 mg/kg/injection, schedule: Q04DX004 (sc), vehicle: saline): 93 % of control

CC(=O)OCC1OC(n2cc(CBr)nn2)C(OC(C)=O)C(OC(C)=O)C1OC(C)=O (stereo unspecified)
T/C (dose: 200.0 mg/kg/injection, schedule: Q01DX010 (sc), vehicle: saline with Tween-80): 79 % of control | T/C (dose: 400.0 mg/kg/injection, schedule: Q01DX010 (sc), vehicle: saline with Tween-80): 97 % of control | T/C (dose: 800.0 mg/kg/injection, schedule: Q01DX010 (sc), vehicle: saline with Tween-80): 70 % of control

C[C@H](CCC[C@H](C)OS(=O)(=O)c1ccccc1)OS(=O)(=O)c1ccccc1
T/C [4]: 49 % of control | T/C [5]: 35 % of control

CC1=CC(=NN=c2cc(C)n([O-])c(C)c2)C=C(C)[N+]1=O
T/C [1]: 73 % of control | T/C [2]: 48 % of control | T/C (dose: 400.0 mg/kg/injection, schedule: Q04DX004 (sc), vehicle: suspension in saline): 40 % of control | T/C (dose: 800.0 mg/kg/injection, schedule: Q04DX004 (sc), vehicle: suspension in saline): 39 % of control

NC(=O)c1[nH]nc(C2OC(CO)C(O)C2O)c1O (stereo unspecified)
T/C [6]: 73 % of control

CCN1/C(=C/C=C/C=C\C=C\c2sc3ccc4ccccc4c3[n+]2CC)Sc2ccc3ccccc3c21
T/C (dose: 25.0 mg/kg/injection, schedule: Q04DX004 (sc), vehicle: saline with Tween-80): 85 % of control | T/C (dose: 50.0 mg/kg/injection, schedule: Q04DX004 (sc), vehicle: saline with Tween-80): 54 % of control | T/C (dose: 100.0 mg/kg/injection, schedule: Q04DX004 (sc), vehicle: saline with Tween-80): 123 % of control | T/C (dose: 200.0 mg/kg/injection, schedule: Q04DX004 (sc), vehicle: saline with Tween-80): 107 % of control

CC(C)[NH-].CC(C)[NH-].[Cl][Pt+2][Cl]
T/C (dose: 37.5 mg/kg/injection, schedule: Q04DX004 (sc), vehicle: dextrose): 58 % of control | T/C (dose: 75.0 mg/kg/injection, schedule: Q04DX004 (sc), vehicle: dextrose): 43 % of control | T/C (dose: 150.0 mg/kg/injection, schedule: Q04DX004 (sc), vehicle: dextrose): 21 % of control

O=Cc1ccccc1
T/C (dose: 200.0 mg/kg/injection, schedule: Q04DX004 (sc), vehicle: Klucel (hydroxypropylcellulose) (HPC)): 119 % of control | T/C (dose: 400.0 mg/kg/injection, schedule: Q04DX004 (sc), vehicle: Klucel (hydroxypropylcellulose) (HPC)): 107 % of control

Cn1c(=O)[nH]c2nncnc2c1=O
T/C (dose: 15.0 mg/kg/injection, schedule: Q04DX004 (sc), vehicle: water): 79 % of control and 101 % of control | T/C (dose: 60.0 mg/kg/injection, schedule: Q04DX004 (sc), vehicle: water): 78 % of control and 86 % of control | T/C (dose: 120.0 mg/kg/injection, schedule: Q04DX004 (sc), vehicle: water): 19 % of control

N[C@@H](Cc1ccc(N(CCCl)CCCl)cc1)C(=O)O
T/C (dose: 4.0 mg/kg/injection, schedule: Q04DX004 (ip), vehicle: saline): 47 % of control | T/C (dose: 6.0 mg/kg/injection, schedule: Q04DX004 (ip), vehicle: saline): 9 % of control | T/C (dose: 9.0 mg/kg/injection, schedule: Q04DX004 (ip), vehicle: saline): -5 % of control

N=c1nc2n(cc1F)[C@@H]1O[C@H](CO)[C@@H](O)[C@@H]1O2
T/C (dose: 300.0 mg/kg/injection, schedule: Q04DX004 (sc), vehicle: suspension in saline): 61 % of control | T/C (dose: 1200.0 mg/kg/injection, schedule: Q04DX004 (sc), vehicle: suspension in saline): 60 % of control

CCN(C)N=Nc1ccc(C(N)=O)cc1
T/C (dose: 75.0 mg/kg/injection, schedule: Q04DX004 (sc), vehicle: Klucel (hydroxypropylcellulose) (HPC)): 92 % of control | T/C [3]: 68 % of control

O=c1[nH]cnc2c1ccn2C1OC(CO)C(O)C1O (stereo unspecified)
T/C (dose: 5.0 mg/kg/injection, schedule: Q04DX004 (sc), vehicle: saline): 48 % of control | T/C [6]: 61 % of control | T/C (dose: 20.0 mg/kg/injection, schedule: Q04DX004 (sc), vehicle: saline): 69 % of control | T/C (dose: 40.0 mg/kg/injection, schedule: Q04DX004 (sc), vehicle: saline): 97 % of control
